Two compounds from patent US20130142883A1, “MEDICAL FOOD FOR THE DIETARY MANAGEMENT OF DEPRESSION AND ANXIETY AND METHODS THEREOF” (priority 2011, published 2013) can be followed below.

Test [1] deals with C57BI/6J mice. Kind of test: Sucrose preference test (anhedonia) under chronic stress. Format: in vivo. The conditions noted are these: young adult male mice; water one week before and during ten days of chronic stress; 10th day; Citalopram 15 mg/kg per day per os; mean±SEM. As for the experimental part:
Citalopram 15 mg/kg per day per os was used as the reference antidepressant drug. There was no difference between groups at baseline. At 10th day of the stress procedure, animals were tested on the sucrose preference, common test for assessment of anhedonia. Results are presented in Table 6 as mean±SEM percent of sucrose preference.

Test [2] has as its system C57BI/6 mice. Kind of test: Dark-light box test after 14 days of drinking water. Format: in vivo. The note with it: three-months-old male mice; water ad libitum 14 days; Diazepam 2.5 mg/kg bolus 30 min prior the test; mean±SEM. As for the experimental part: Bolus injection of anxiolytic drug Diazepam (2.5 mg/kg, 30 min prior the test) was used as a positive reference control.

In turn, `CN(C)CCCC1(c2ccc(F)cc2)OCc2cc(C#N)ccc21` (centres unmarked) [Citalopram] gave a Sucrose preference in test [1] of 70.0 ± 3.0 %.

With `CN1C(=O)CN=C(c2ccccc2)c2cc(Cl)ccc21` [Diazepam], the “Time (time spent in the lit box)” value in test [2] came to 155.2 ± 7.8 s.
